Reference: US8071786B2, “Indole compounds useful as serotonin selective agents” (Galenea Corp., priority 2005, dated 2011)
Marks after values point to notes of the source that are not given here.

Columns and labels:
[1] = Appetite suppression in mice, acute assay (food consumption); type: in vivo; conditions: for Mean food consumption 60 min. after injection: g (±SEM) Compound / Mean food consumption 90 min. after injection: g (±SEM) Compound: mice deprived of food 18 hours
Description: Mice were deprived of food, but not water, for 18 hours. They were then injected i.p. with test compounds dissolved in 0.9% NaCl containing 1 mg per ml ascorbic acid for protection against oxidation. Each mouse was placed in an individual cage for 30 minutes and then presented with a small petri dish containing a gel made from gelatin, powdered milk and sucrose. The dish was weighed at zero time and at 15-minute intervals for the next hour in order to quantitate food consumption. Controls were injected with saline-ascorbic acid; ±fenfluramine was used as an active control. Control consumption generally ranged from 1.5 to 2.0 grams.

[2] = tested on: itch-associated scratching induced by compound 48-80; test: Animal model for OCD: compound 48-80-induced scratching; type: in vivo, male Swiss-Webster mice
Description: (§1) The 5-HT action is at least partly mediated by 5-HT2 receptors in the skin, as shown by blocking with specific antagonists (Yamaguchi, T., Nagasawa, T., Satoh, M., Kuraishi, Y. “Itch-associated Response Induced by Intradermal Serotonin Through 5-HT2 Receptors in Mice” Neurosci. Res. 1999, 35, 77). The effect of test compounds on itch-associated scratching in the mice may indicate their action on 5-HT receptors, and a study was carried out as an animal model for OCD. The subjects were male Swiss-Webster mice, 4-6 weeks old, weighing 25-45 g. Mice were housed 5 per cage, given free access to standard mouse food and water except during experiments, and maintained in a temperature-controlled room (70° F.). Serotonin and all test drugs were made up with ascorbic acid to protect against oxidation. Two mice, one a control, the other experimental, were tested each time. Each mouse was separately placed into a plexiglas box.
Mice were injected subcutaneously between the shoulder blades with either 0.1 ml of serotonin, 0.4 mg per ml in 0.15 M saline plus ascorbic acid, 1 mg/ml, or compound 48-80 (the copolymer product of N-methyl-p-methoxyphenethylamine with formaldehyde), 1.0 mg/ml in saline plus ascorbic acid. Test compounds were injected i.p. 5 minutes before the inducer. The cumulative number of scratches with a hind leg was recorded at 5 minute intervals for 30 minutes. […]

[3] = tested on: itch-associated scratching induced by serotonin; test: Animal model for OCD: serotonin-induced scratching; type: in vivo, male Swiss-Webster mice; conditions: for Number of Scratches as Percentage of Control: inducer Serotonin
Description: as §1
Mice were injected subcutaneously between the shoulder blades with either 0.1 ml of serotonin, 0.4 mg per ml in 0.15 M saline plus ascorbic acid, 1 mg/ml, or compound 48-80 (the copolymer product of N-methyl-p-methoxyphenethylamine with formaldehyde), 1.0 mg/ml in saline plus ascorbic acid. Test compounds were injected i.p. 5 minutes before the inducer. The cumulative number of scratches with a hind leg was recorded at 5 minute intervals for 30 minutes. One saline injected control and one test animal were tested together in each assay.

[4] = Appetite suppression in mice, chronic assay (body weight); type: in vivo
Description: Mice were injected i.p. at intervals of 2 or 3 days and weighed repeatedly (6 or 7 total injections). Controls were injected with saline. Weighing and injection were carried out between 11 AM and 1 PM.

[5] = target: T1, 5-HT2C (Homo sapiens, UniProt P28335); conditions: background, literature; cited from earlier work
T1 sequence (P28335 33-458): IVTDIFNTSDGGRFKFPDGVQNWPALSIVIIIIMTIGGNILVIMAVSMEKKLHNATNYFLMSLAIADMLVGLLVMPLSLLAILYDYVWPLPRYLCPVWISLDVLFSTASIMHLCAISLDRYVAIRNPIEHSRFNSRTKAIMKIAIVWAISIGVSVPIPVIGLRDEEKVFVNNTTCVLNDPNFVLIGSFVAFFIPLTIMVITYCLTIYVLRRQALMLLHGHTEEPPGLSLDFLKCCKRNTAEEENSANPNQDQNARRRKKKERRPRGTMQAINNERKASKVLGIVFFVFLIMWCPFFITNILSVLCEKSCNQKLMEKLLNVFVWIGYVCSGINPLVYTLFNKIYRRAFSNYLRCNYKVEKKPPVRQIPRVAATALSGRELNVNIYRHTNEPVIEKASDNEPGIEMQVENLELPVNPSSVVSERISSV

[6] = target: T2, 5-HT2A (Homo sapiens, UniProt P28223); test: Receptor binding, competition binding assay
Description: (§2) For initial screens, a 10 micromolar concentration of each compound (dissolved in 10% DMSO) was incubated with the appropriate receptor preparation and percent inhibition determined for duplicate determinations each performed in duplicate. Where >50% inhibition of specific binding was measured, Ki determinations were then measured by competition binding assays in which concentrations from 1 to 100,000 nM were incubated in duplicate. For each Ki value the data represent the mean+/−SD of computer-derived estimates for N=4 separate determinations, as described (Rothman, R., Baumann, M., Savage, J., Rauser, L., McBride, A., Hufeisen, S., Roth, B. L. “Evidence for Possible Involvement of 5-HT2B Receptors in the Cardiac Valvulopathy Associated with Fenfluramine and other Serotonergic Medications” Circulation 2000, 102, 2836; Roth, B. L., Shoham, M., Choudhary, M., Khan, N. “Identification of Conserved Aromatic Residues Essential for Agonist Binding and Second Messenger Production at 5-Hydroxytryptamine 2A Receptors” Mol. Pharmacol. 1997, 52, 259; Roth, B. L., Choudhary, M., Khan, N., Uluer, A. “High-affinity Agonist Binding is not Sufficient for Agonist Efficacy at 5-Hydroxytryptamine 2A Receptors: Evidence in Favor of a Modified Ternary Complex Model” J. Pharmacol. Exp. Ther. 1997, 280, 576).
(§3) Receptor binding (Ki) in nM. When the standard deviation is given N≧3.

[7] = target: T3, 5-HT2B (Homo sapiens, UniProt P41595); test: Receptor binding, competition binding assay
Description: as §2, §3

[8] = target: T1, 5-HT2C; test: Receptor binding, competition binding assay
Description: as §2, §3

[9] = target: T4, human 5-HT2C-INI (Homo sapiens, UniProt P28335); test: Phosphoinositide hydrolysis functional assay; type: cell-based
T4 construct: expressed in transfected cells
T4 sequence (P28335 33-458): T1 sequence (P28335 33-458)
Description: (§4) Phosphoinositide hydrolysis assays were performed with stably (5-HT2A, 5-HT2C) or transiently (5-HT2B) expressed receptors plated in 24-well culture plates. Transfected cells were loaded with […] overnight in inositol-free DMEM without serum. The next day, phosphate accumulation assays were performed in a modified Krebs-bicarbonate buffer. Kact (nmol/L) and percent Vmax (relative to 5-HT) values were calculated (Roth, B. L., Shoham, M., Choudhary, M., Khan, N. “Identification of Conserved Aromatic Residues Essential for Agonist Binding and Second Messenger Production at 5-Hydroxytryptamine 2A Receptors” Mol. Pharmacol. 1997, 52, 259; Roth, B. L., Choudhary, M., Khan, N., Uluer, A. “High-affinity Agonist Binding is not Sufficient for Agonist Efficacy at 5-Hydroxytryptamine 2A Receptors: Evidence in Favor of a Modified Ternary Complex Model” J. Pharmacol. Exp. Ther. 1997, 280, 576).
(§5) Functional Assay (EC50) in nM. Data represent mean EC50 values for activation of phospho-inositide hydrolysis in cells expressing human 5-HT2A, 5-HT2B or 5-HT2C-INI receptors, relative to serotonin at 100%. When the standard deviation is given, N≧3.

[10] = target: T2, 5-HT2A; test: Phosphoinositide hydrolysis functional assay; type: cell-based; design: expressed in transfected cells
Description: as §4, §5

[11] = target: T3, 5-HT2B; test: Phosphoinositide hydrolysis functional assay; type: cell-based; design: expressed in transfected cells
Description: as §4, §5

[12] = 5 mg/kg i.p. 5 minutes before inducer Serotonin
[13] = 20 mg/kg i.p. at intervals of 2 or 3 days
[14] = 30 mg/kg i.p. at intervals of 2 or 3 days
[15] = activation of phosphoinositide hydrolysis, stably expressed receptor

T3 sequence (P41595 whole entry): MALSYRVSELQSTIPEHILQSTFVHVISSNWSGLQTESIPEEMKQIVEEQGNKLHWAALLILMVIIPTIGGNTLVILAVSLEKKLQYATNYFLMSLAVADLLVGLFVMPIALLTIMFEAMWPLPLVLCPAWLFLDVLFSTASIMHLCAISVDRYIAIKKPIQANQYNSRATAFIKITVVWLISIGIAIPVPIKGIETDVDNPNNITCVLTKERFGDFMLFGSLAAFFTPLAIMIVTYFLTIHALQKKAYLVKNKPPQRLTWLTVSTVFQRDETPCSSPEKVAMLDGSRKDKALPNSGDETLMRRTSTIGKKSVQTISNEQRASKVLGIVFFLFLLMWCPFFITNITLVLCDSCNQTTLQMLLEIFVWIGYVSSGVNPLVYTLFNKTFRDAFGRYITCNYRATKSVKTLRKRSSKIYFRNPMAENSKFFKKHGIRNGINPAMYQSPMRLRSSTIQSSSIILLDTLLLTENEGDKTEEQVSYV
T2 sequence (P28223 whole entry): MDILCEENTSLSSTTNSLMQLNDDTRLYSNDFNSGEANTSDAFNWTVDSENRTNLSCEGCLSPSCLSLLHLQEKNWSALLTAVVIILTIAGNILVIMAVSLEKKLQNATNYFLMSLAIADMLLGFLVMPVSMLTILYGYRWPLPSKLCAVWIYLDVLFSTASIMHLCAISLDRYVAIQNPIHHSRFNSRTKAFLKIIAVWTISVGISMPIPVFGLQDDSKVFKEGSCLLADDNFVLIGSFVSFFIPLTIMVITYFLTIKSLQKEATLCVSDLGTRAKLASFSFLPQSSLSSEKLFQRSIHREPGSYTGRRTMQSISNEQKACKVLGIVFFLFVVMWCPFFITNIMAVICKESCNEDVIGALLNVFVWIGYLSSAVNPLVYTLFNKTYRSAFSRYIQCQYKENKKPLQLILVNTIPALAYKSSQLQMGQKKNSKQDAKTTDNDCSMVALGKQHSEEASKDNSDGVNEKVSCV

SMILES | % of Control (food consumption 60 min. after injection) ([1]; 10 mg/kg i.p.) | % of Control (food consumption 90 min. after injection) ([1]; 10 mg/kg i.p.) | Mean food consumption 60 min. after injection: g (±SEM) Compound ([1]; 10 mg/kg i.p.) | Mean food consumption 90 min. after injection: g (±SEM) Compound ([1]; 10 mg/kg i.p.) | % of Control (food consumption 60 min. after injection) ([1]; 20 mg/kg i.p.) | % of Control (food consumption 90 min. after injection) ([1]; 20 mg/kg i.p.) | Mean food consumption 60 min. after injection: g (±SEM) Compound ([1]; 20 mg/kg i.p.) | Mean food consumption 90 min. after injection: g (±SEM) Compound ([1]; 20 mg/kg i.p.) | % of Control (food consumption 60 min. after injection) ([1]; 30 mg/kg i.p.) | % of Control (food consumption 90 min. after injection) ([1]; 30 mg/kg i.p.) | Mean food consumption 60 min. after injection: g (±SEM) Compound ([1]; 30 mg/kg i.p.) | Mean food consumption 90 min. after injection: g (±SEM) Compound ([1]; 30 mg/kg i.p.) | Average Number of Scratches 30 min. after injection [3, 12] | Number of Scratches as Percentage of Control ([3]; 5 mg/kg i.p.) | other results
CN(C)CCc1cn(C)c2c(F)ccc(OP(=O)(O)O)c12 [Compound O-3944, 3-(2-Dimethylaminoethyl)-7-fluoro-1-methyl-1H-indol-4-phosphate] | 74% | 75% | 0.84 (.17) g | 1.38 (.13) g | 41% | 62% | 0.56 (.10)* g | 1.05 (.14)* g | 15% | 55% | 0.13 (.05)* g | 0.65 (.11)* g | 113.4* | 20.2% | Average Number of Scratches 30 min. after injection ([2]; 30 mg/kg i.p. 5 minutes before inducer 48-80): 0*; Number of Scratches as Percentage of Control ([2]; 30 mg/kg i.p., inducer 48-80): 0%; Average Number of Scratches 30 min. after injection ([3]; 2 mg/kg i.p. 5 minutes before inducer Serotonin): 231.6; Number of Scratches as Percentage of Control ([3]; 2 mg/kg i.p.): 39.3%; Day 7 % Δ from starting weight [4, 13]: −1.75* %; Day 7 Difference within same group [4, 13]: -0.78 g; Day 14 % Δ from starting weight [4, 13]: −2.04* %; Day 14 Difference within same group [4, 13]: -0.91 g; Day 7 % Δ from starting weight [4, 14]: −3.66* %; Day 7 Difference within same group [4, 14]: -1.89 g; Day 14 % Δ from starting weight [4, 14]: −4.13* %; Day 14 Difference within same group [4, 14]: -2.13 g
C[C@H](N)Cn1ccc2cc(F)c(Cl)cc21 [Ro 60-0175] |  |  |  |  |  |  |  |  |  |  |  |  |  |  | times more active at 5-HT2C as compared to 5-HT2A [5]: 25 times
CN(C)CCc1cn(C)c2c(F)ccc(O)c12 [Compound O-3804, 3-(2-Dimethylaminoethyl)-7-fluoro-1-methyl-1H-indol-4-ol] | 114% | 96% | 1.3 (.14) g | 1.76 (.15) g | 99% | 107% | 1.48 (.19) g | 1.86 (.20) g | 56% | 77% | 0.79 (.09)* g | 1.37 (.11) g | 128.4 | 34.2% | melting point: 134 to 138 °C; Ki [6]: 68.2 nM; Ki [7]: 3.64 nM; Ki [8]: 25.4 nM; EC50 [9, 15]: 0.517 nM; Emax ([9]; value in brackets, read-out: percent Vmax relative to serotonin at 100%, 5-HT2C (converted)): 89.9%; EC50 [10, 15]: 129 ± 1.44 nM; percent Vmax relative to serotonin at 100%, 5-HT2A ([10]; value in brackets): (125.4% ± 6.225%); EC50 ([11]; activation of phosphoinositide hydrolysis, transiently expressed receptor): 35.4 ± 1.31 nM; percent Vmax relative to serotonin at 100%, 5-HT2B ([11]; value in brackets): (7.0 ± 0.92%); Average Number of Scratches 30 min. after injection ([3]; 20 mg/kg i.p. 5 minutes before inducer Serotonin): 12.8*; Number of Scratches as Percentage of Control ([3]; 20 mg/kg i.p.): 2.2%
